In the NIST ThermoML archive (doi:10.1016/j.fluid.2018.05.028):

What was measured:
[1] = refractive index (Na D-line) (dimensionless); conditions: 101 kPa, Liquid, Standard Abbe refractometry
[2] = 101 kPa, Liquid; for viscosity: Concentric cylinders viscometry; for speed of sound: Single path-length method; for mass density: Vibrating tube method
[3] = xn = mol fraction of the nth substance listed; conditions: 101 kPa, Liquid, x1 = 1; for viscosity: Concentric cylinders viscometry; for speed of sound: Single path-length method; for mass density: Vibrating tube method
[4] = refractive index (Na D-line) (dimensionless); xn = mol fraction of the nth substance listed; conditions: 101 kPa, Liquid, Standard Abbe refractometry, x1 = 1

CCCCCCCC/C=C\CCCCCCCC(=O)OCC [ethyl (Z)-9-octadeceneoate]
Conditions | mass density, [2] [kg/m3] | refractive index, [1] | speed of sound, [2] [m/s] | viscosity, [2] [mPa·s]
298.15 K | 865.23 | 1.4481 | 1376.2 | 5.674
303.15 K | 861.6 | 1.4461 | 1358.4 | 4.999
308.15 K | 857.97 | 1.4441 | 1340.8 | 4.435

CCCO [propan-1-ol] + CCCCCCCC/C=C\CCCCCCCC(=O)OCC
Conditions | mass density, [3] [kg/m3] | refractive index, [4] | speed of sound, [3] [m/s] | viscosity, [3] [mPa·s]
293.15 K | 803.95 | 1.3852 | 1223 | 2.147
298.15 K | 799.93 | 1.3831 | 1205.7 | 1.926
303.15 K | 795.89 | 1.381 | 1188.6 | 1.716
308.15 K | 791.82 | 1.3789 | 1171.6 | 1.532
313.15 K | 787.71 | 1.3768 | 1154.7 | 1.379
318.15 K | 783.56 | 1.3747 | 1137.9 | 1.234
323.15 K | 779.36 | 1.3726 | 1121.1 | 1.112
328.15 K | 775.1 | 1.3704 | 1104.3 | 1.004
333.15 K | 770.78 | 1.3682 | 1087.5 | 0.9109
338.15 K | 766.4 | 1.366 | 1070.6 | 0.8241
343.15 K | 761.93 | 1.3635 | 1053.8 | 0.7468

CCCO [propan-1-ol] + CCCCCCCCCCCCCCCC
Conditions | mass density, [3] [kg/m3] | refractive index, [4] | speed of sound, [3] [m/s] | viscosity, [3] [mPa·s]
293.15 K | 803.95 | 1.3852 | 1223 | 2.147
298.15 K | 799.93 | 1.3831 | 1205.7 | 1.926
303.15 K | 795.89 | 1.381 | 1188.6 | 1.716
308.15 K | 791.82 | 1.3789 | 1171.6 | 1.532
313.15 K | 787.71 | 1.3768 | 1154.7 | 1.379
318.15 K | 783.56 | 1.3747 | 1137.9 | 1.234
323.15 K | 779.36 | 1.3726 | 1121.1 | 1.112
328.15 K | 775.1 | 1.3704 | 1104.3 | 1.004
333.15 K | 770.78 | 1.3682 | 1087.5 | 0.9109
338.15 K | 766.4 | 1.366 | 1070.6 | 0.8241
343.15 K | 761.93 | 1.3635 | 1053.8 | 0.7468
